Experimental data taken from patent publication US10829501B2 (BRISTOL-MYERS SQUIBB COMPANY, priority 2016, dated 2020).

What follows are compounds tested against ROCK2 (Homo sapiens, UniProt O75116) (assay: ROCK2 kinase inhibition assay (LABCHIP 3000 Reader, FITC peptide substrate);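 note: rho kinase reaction read by separating phosphorylated from unphosphorylated peptide on chip, with inhibition of kinase activity computed per concentration across a dose-response series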).
Chain of ROCK2 (O75116 whole entry, species assumed): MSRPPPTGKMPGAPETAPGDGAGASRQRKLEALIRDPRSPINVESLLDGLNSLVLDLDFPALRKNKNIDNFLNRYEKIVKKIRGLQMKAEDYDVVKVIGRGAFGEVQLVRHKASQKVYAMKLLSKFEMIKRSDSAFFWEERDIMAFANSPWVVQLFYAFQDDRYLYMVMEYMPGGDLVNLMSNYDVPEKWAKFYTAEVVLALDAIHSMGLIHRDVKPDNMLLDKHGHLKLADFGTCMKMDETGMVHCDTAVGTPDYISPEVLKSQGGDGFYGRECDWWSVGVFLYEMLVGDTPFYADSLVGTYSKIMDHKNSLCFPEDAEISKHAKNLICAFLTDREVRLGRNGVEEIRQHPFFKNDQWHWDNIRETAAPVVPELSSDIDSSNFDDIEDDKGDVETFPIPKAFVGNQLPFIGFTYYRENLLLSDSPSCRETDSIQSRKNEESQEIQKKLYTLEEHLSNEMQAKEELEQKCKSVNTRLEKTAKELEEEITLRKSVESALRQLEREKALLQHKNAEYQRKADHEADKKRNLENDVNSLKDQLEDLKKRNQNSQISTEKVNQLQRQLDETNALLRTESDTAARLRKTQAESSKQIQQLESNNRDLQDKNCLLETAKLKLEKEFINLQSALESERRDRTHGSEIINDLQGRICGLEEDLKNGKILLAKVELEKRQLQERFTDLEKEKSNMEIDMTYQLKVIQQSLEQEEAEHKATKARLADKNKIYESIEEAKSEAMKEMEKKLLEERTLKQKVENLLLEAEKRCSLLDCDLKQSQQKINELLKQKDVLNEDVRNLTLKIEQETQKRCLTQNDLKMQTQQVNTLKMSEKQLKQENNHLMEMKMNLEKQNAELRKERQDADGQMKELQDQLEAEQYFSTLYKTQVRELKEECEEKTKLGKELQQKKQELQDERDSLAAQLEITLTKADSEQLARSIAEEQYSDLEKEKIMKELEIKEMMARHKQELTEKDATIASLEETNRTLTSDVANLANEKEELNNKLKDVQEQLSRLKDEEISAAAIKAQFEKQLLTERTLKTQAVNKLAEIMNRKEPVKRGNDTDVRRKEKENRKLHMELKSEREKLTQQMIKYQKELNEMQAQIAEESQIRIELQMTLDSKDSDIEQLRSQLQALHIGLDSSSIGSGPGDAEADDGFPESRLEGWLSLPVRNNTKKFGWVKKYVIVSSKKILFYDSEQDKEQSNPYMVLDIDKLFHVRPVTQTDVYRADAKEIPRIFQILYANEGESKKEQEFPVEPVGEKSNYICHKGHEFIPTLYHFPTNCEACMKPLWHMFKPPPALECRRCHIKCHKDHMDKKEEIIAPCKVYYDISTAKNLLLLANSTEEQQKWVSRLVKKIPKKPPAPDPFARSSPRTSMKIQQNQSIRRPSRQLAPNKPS

| IC50 | SMILES |
| --- | --- |
| 0.005 to 0.05 µM | NC(=O)c1cccnc1O[C@H]1CC2(C[C@H](NC(=O)c3cnn4cc(N5CCOCC5)ccc34)C2)C1 (stereo partly drawn) [Example 317, N-((aR)-6-((3-carbamoylpyridin-2-yl)oxy)spiro[3.3]heptan-2-yl)-6-morpholinopyrazolo[1,5-a]pyridine-3-carboxamide] |
| < 0.005 µM | NC(=O)c1cccnc1O[C@H]1CC2(C[C@H](NC(=O)c3cnn4cc(N5CC[C@@H](F)C5)ccc34)C2)C1 (stereo partly drawn) [Example 318, N-((aR)-6-((3-carbamoylpyridin-2-yl)oxy)spiro[3.3]heptan-2-yl)-6-((R)-3-fluoropyrrolidin-1-yl)pyrazolo[1,5-a]pyridine-3-carboxamide] |
| 0.005 to 0.05 µM | CN1CCN(c2ccc3c(C(=O)N[C@H]4CC5(C4)C[C@H](Oc4ncccc4C(N)=O)C5)cnn3c2)CC1 (stereo partly drawn) [Example 319, N-((aR)-6-((3-carbamoylpyridin-2-yl)oxy)spiro[3.3]heptan-2-yl)-6-(4-methylpiperazin-1-yl)pyrazolo[1,5-a]pyridine-3-carboxamide] |
| 0.005 to 0.05 µM | CC(C)c1c(OCC(C)(C)O)ccc2c(C(=O)N[C@H]3CC4(C3)C[C@H](Oc3ncccc3C(N)=O)C4)cnn12 (stereo partly drawn) [Example 320, N-((aR)-6-((3-carbamoylpyridin-2-yl)oxy)spiro[3.3]heptan-2-yl)-6-(2-hydroxy-2-methylpropoxy)-7-isopropylpyrazolo[1,5-a]pyridine-3-carboxamide] |
| 0.005 to 0.05 µM | Cc1c(OCC(C)(C)O)ccc2c(C(=O)N[C@H]3CC4(C3)C[C@H](Oc3ncccc3C(N)=O)C4)cnn12 (stereo partly drawn) [Example 321, N-((aR)-6-((3-carbamoylpyridin-2-yl)oxy)spiro[3.3]heptan-2-yl)-6-(2-hydroxy-2-methylpropoxy)-7-methylpyrazolo[1,5-a]pyridine-3-carboxamide] |
| < 0.005 µM | NC(=O)c1cccnc1O[C@H]1CC2(C[C@H](NC(=O)c3cnc4cc(N5CC[C@H](F)C5)ccn34)C2)C1 (stereo partly drawn) [Example 322, N-((aR)-6-((3-carbamoylpyridin-2-yl)oxy)spiro[3.3]heptan-2-yl)-7-((S)-3-fluoropyrrolidin-1-yl)imidazo[1,2-a]pyridine-3-carboxamide] |
| < 0.005 µM | NC(=O)c1cccnc1O[C@H]1CC2(C[C@H](NC(=O)c3cnc4cc(N5CCC(F)(F)C5)ccn34)C2)C1 (stereo partly drawn) [Example 323, N-((aR)-6-((3-carbamoylpyridin-2-yl)oxy)spiro[3.3]heptan-2-yl)-7-(3,3-difluoropyrrolidin-1-yl)imidazo[1,2-a]pyridine-3-carboxamide] |
| < 0.005 µM | NC(=O)c1cccnc1O[C@H]1CC2(C[C@H](NC(=O)c3cnc4cc(N5CCC(F)(F)CC5)ccn34)C2)C1 (stereo partly drawn) [Example 324, N-((aR)-6-((3-carbamoylpyridin-2-yl)oxy)spiro[3.3]heptan-2-yl)-7-(4,4-difluoropiperidin-1-yl)imidazo[1,2-a]pyridine-3-carboxamide] |
| 0.005 to 0.05 µM | NC(=O)c1cccnc1O[C@H]1CC2(C[C@H](NC(=O)c3cnc4cc(OCCN5CCCC5)ccn34)C2)C1 (stereo partly drawn) [Example 325, N-((aR)-6-((3-carbamoylpyridin-2-yl)oxy)spiro[3.3]heptan-2-yl)-7-(2-(pyrrolidin-1-yl)ethoxy)imidazo[1,2-a]pyridine-3-carboxamide] |
| 0.005 to 0.05 µM | NC(=O)c1cccnc1O[C@H]1CC2(C[C@H](NC(=O)c3cnc4cc(N5CC[C@@H](O)C5)ccn34)C2)C1 (stereo partly drawn) [Example 326, N-((aR)-6-((3-carbamoylpyridin-2-yl)oxy)spiro[3.3]heptan-2-yl)-7-((R)-3-hydroxypyrrolidin-1-yl)imidazo[1,2-a]pyridine-3-carboxamide] |
| 0.05 to 0.25 µM | NC(=O)c1cccnc1O[C@H]1CC2(C[C@H](NC(=O)c3cnc4ccc(F)cn34)C2)C1 (stereo partly drawn) [Example 327, N-((aR)-6-((3-carbamoylpyridin-2-yl)oxy)spiro[3.3]heptan-2-yl)-6-fluoroimidazo[1,2-a]pyridine-3-carboxamide] |
| 0.05 to 0.25 µM | CC(O)c1ccn2c(C(=O)N[C@H]3CC4(C3)C[C@H](Oc3ncccc3C(N)=O)C4)cnc2c1 (stereo partly drawn) [Example 328, N-((aR)-6-((3-carbamoylpyridin-2-yl)oxy)spiro[3.3]heptan-2-yl)-7-(1-hydroxyethyl)imidazo[1,2-a]pyridine-3-carboxamide] |
| < 0.005 µM | NC(=O)c1cccnc1O[C@H]1CC2(C[C@H](NC(=O)c3cnc4cc(N5CC[C@@H](F)C5)ccn34)C2)C1 (stereo partly drawn) [Example 329, N-((aR)-6-((3-carbamoylpyridin-2-yl)oxy)spiro[3.3]heptan-2-yl)-7-((R)-3-fluoropyrrolidin-1-yl)imidazo[1,2-a]pyridine-3-carboxamide] |
| 0.005 to 0.05 µM | C[C@@H](O)COc1ccc2c(C(=O)N[C@H]3CC4(C3)C[C@H](Oc3ncccc3C(N)=O)C4)cnn2c1 (stereo partly drawn) [Example 330, N-((aR)-6-((3-carbamoylpyridin-2-yl)oxy)spiro[3.3]heptan-2-yl)-6-((R)-2-hydroxypropoxy)pyrazolo[1,5-a]pyridine-3-carboxamide] |
| 0.005 to 0.05 µM | NC(=O)c1cccnc1O[C@H]1CC2(C[C@H](NC(=O)c3cnc4cc(OCC(F)F)ccn34)C2)C1 (stereo partly drawn) [Example 331, N-((aR)-6-((3-carbamoylpyridin-2-yl)oxy)spiro[3.3]heptan-2-yl)-7-(2,2-difluoroethoxy)imidazo[1,2-a]pyridine-3-carboxamide] |
| 0.005 to 0.05 µM | NC(=O)c1cccnc1O[C@H]1CC2(C[C@H](NC(=O)c3cnc4cc(OC(CF)CF)ccn34)C2)C1 (stereo partly drawn) [Example 332, N-((aR)-6-((3-carbamoylpyridin-2-yl)oxy)spiro[3.3]heptan-2-yl)-7-((1,3-difluoropropan-2-yl)oxy)imidazo[1,2-a]pyridine-3-carboxamide] |
| 0.005 to 0.05 µM | C[C@H](O)COc1ccc2c(C(=O)N[C@H]3CC4(C3)C[C@H](Oc3ncccc3C(N)=O)C4)cnn2c1 (stereo partly drawn) [Example 333, N-((aR)-6-((3-carbamoylpyridin-2-yl)oxy)spiro[3.3]heptan-2-yl)-6-((S)-2-hydroxypropoxy)pyrazolo[1,5-a]pyridine-3-carboxamide] |
| 0.05 to 0.25 µM | NC(=O)c1cccnc1O[C@H]1CC2(C[C@H](NC(=O)c3cnc4cc(C(F)(F)F)ccn34)C2)C1 (stereo partly drawn) [Example 334, N-((aR)-6-((3-carbamoylpyridin-2-yl)oxy)spiro[3.3]heptan-2-yl)-7-(trifluoromethyl)imidazo[1,2-a]pyridine-3-carboxamide] |
| 0.005 to 0.05 µM | Cc1ccn2c(C(=O)N[C@H]3CC4(C3)C[C@H](Oc3ncccc3C(N)=O)C4)cnc2c1 (stereo partly drawn) [Example 335, N-((aR)-6-((3-carbamoylpyridin-2-yl)oxy)spiro[3.3]heptan-2-yl)-7-methylimidazo[1,2-a]pyridine-3-carboxamide] |
| 0.005 to 0.05 µM | CN1CCN(c2ccn3c(C(=O)N[C@H]4CC5(C4)C[C@H](Oc4ncccc4C(N)=O)C5)cnc3c2)CC1 (stereo partly drawn) [Example 336, N-((aR)-6-((3-carbamoylpyridin-2-yl)oxy)spiro[3.3]heptan-2-yl)-7-(4-methylpiperazin-1-yl)imidazo[1,2-a]pyridine-3-carboxamide] |
| 0.005 to 0.05 µM | Cn1cc(-c2ccn3c(C(=O)N[C@H]4CC5(C4)C[C@H](Oc4ncccc4C(N)=O)C5)cnc3c2)cn1 (stereo partly drawn) [Example 337, N-((aR)-6-((3-carbamoylpyridin-2-yl)oxy)spiro[3.3]heptan-2-yl)-7-(1-methyl-1H-pyrazol-4-yl)imidazo[1,2-a]pyridine-3-carboxamide] |
